# Measured values taken from patent publication US4921960A, “Quinoline thioethers” (priority 1987, dated 1990).
# Key:
# Male CFY rats = test: "Conflict" test: water consumption of food-deprived rats without punishment and in punished situation (anti-anxiety versus sedative effect); format: in vivo, rat; details: for Sedative dose (numerator of ratio): as printed in b54 without unit, see Tables I and III; for Water consumption (ml) punished situation / Water consumption (ml) without punishment: 30 min prior; for Ratio between the sedative and anxiolytic dose: Tables I and III; for Anxiolytic effect in presence of RO-15-1788 (selective benzodiazepine receptor antagonist): Tables II and IV
# Description: The essential strategy for measuring the anti-anxiety effecct of a drug is to check its activity in a conflict situation. We elicit a rewarded response, then suppress that response by punishing it when it occurs and the anti-anxiety effect is measured by the drug-induced increase in punished responding, whereas the sedative effect is measured by the drug-induced decrease of unpunished responding.
# This means that when we circuit the drinking tube and the grid floor of the cage and the rat is regularly shocked by trying to drink, the very hungry animal, which cannot eat without drinking, is maximally forced to overcome the hindrance. This is a sensitive test to check the anti-anxiety effect of a compound.
# Male CFY rats, weighing 230-250 g, fed with standard food pellets and supplied with tap water ad libitum, were kept under controlled standard environmental conditions (room temperature between 22°-24° C.) in groups of ten for two weeks until used in the experiment. The rats kept in single cages during starvation were deprived of food for 96 hours and supplied with tap water ad libitum before the experiment.
# Another aspect of the selection of the animals for the experiment was their visible physical fitness and normal activity after starvation.
# A clear Plexiglass box (39×27×12 cm) with a stainless-steel grid floor supplied with a tray for the food pellets and with a drinking tube was used for the experiment. The grid floor, the drinking tube and an electric stimulator (Grass S48) were connected and electric shocks in this circuit were delivered for 10 s duration with 20 s intervals. The parameters of the current (100 V; 25 ohm; 7.5 ms; 5 Hz) were empirically selected using those electric shocks which inhibited the water consumption of the very hungry rats to one third of the control (unpunished) level.
# The rats spend one hour in the apparatus after 96 hours of food deprivation.
# The drugs were administered parenterally in doses of 0.5 ml/100 g body weight. We refrained from the oral administration of the compounds because of the long term food deprivation.
# The Student t-test was used for statistical analysis. The anxiolytic effect was established in punished animals and the sedative effect in unpunished rats.
# benzodiazepine receptors = test: In vitro binding, 3H-Diazepam displacement on rat brain membrane preparation; details: 2 nM 3H-Diazepam, rat cortex membranes; for Displacement of 3H-Diazepam from its receptor: 1 hr at 0-4 °C; for IC50 value: both drugs compared
# Description: The in vitro binding of compound A in comparison to that of chlordiazepoxide was measured on rat brain membrane preparation. Male CFY rat cortex was homogenized in 0.32M sucrose using glass homogenizer with teflon pestle. Nucleus was spun down at 1000 g for 15 min. The supernatant was centrifuged at 40,000 g for 15 min. The pellet was homogenized in 5 mM TRIS-citrate buffer pH 7.1 by a Polytron P10 and it was lyzed for 15 min. at 0° C. After centrifugation at 40,000 g for 15 min. the pellet was taken up in 50 mM TRIS-citrate buffer pH 7.1 and kept overnight at -20° C. After thawing and centrifugation (40,000 g for 15 min.) the pellet was washed in 50 mM TRIS-citrate buffer pH 7.1 three times by centrifugation. The final pellet was taken up in the same buffer in 1:30 volume. Ligand: 2 nM ^3 H-Diazepam (sp. act. 86 Ci/mmol).
# Incubation: 1 hr at 0°-4° C. in 50 mM TRIS-citrate buffer ph 7.1
# Final protein concentration: ca. 0.5 mg/ml.
# The binding was stopped by dilution with cold buffer and rapid filtration on GF/B Whatman filter paper.
# For the displacement we used six different concentrations of drugs, run with 3 parallels. Experiments were repeated two times. Compound A was dissolved in cc. acetic acid and distilled water then the 10^-3 M solution was further diluted with incubation buffer. Blank solution was prepared in the same way without containing the drug. Chlordiazepoxide was dissolved in the incubation buffer.
# [1] = tested on: picrotoxin induced convulsions in rats; format: in vivo, rat
# [2] = tested on: pentametazol induced convulsions in rats; test: Pentametazol induced convulsions; format: in vivo, rat; details: for Deaths of pretreated animals / Effect on pentametazol convulsions: 10 mg/kg prior to 120 mg/kg s.c. pentametazol
# [3] = tested on: electroshock-induced convulsions in rats; test: Electroshock-induced lethal convulsions; format: in vivo, rat
# [4] = Acute toxicity, oral LD50; details: rat, in vivo, CFY rats, deaths within 48 h, Litchfield and Wilcoxon
# Description: Acute toxicity was assessed on CFY rats (100-160 g). Groups of 10 rats were used. Compound A was administered orally (in volume of 10 ml/kg). The animals starved for 16 h before the experiment. Each dose was administered to a group of animals equally subdivided into males and females. Deaths occurring within 48 h were considered. LD50 values were calculated on the basis of the graphical method of Litchfield and Wilcoxon.
# [5] = tested on: strychnine induced convulsions in rats; test: Strychnine induced lethal convulsions; format: in vivo, rat
# [6] = chlordiazepoxide 0.05 mg/kg s.c.
# [7] = chlordiazepoxide 0.1 mg/kg s.c.
# [8] = chlordiazepoxide 0.25 mg/kg s.c.
# [9] = chlordiazepoxide 0.5 mg/kg s.c.
# [10] = chlordiazepoxide 2.5 mg/kg s.c.
# [11] = up to the oral dose of 200 mg/kg, rats
# [12] = pretreatment 200 mg/kg, 120 mg/kg s.c. pentametazol
smiles,measurement,setting,value
CNC1=Nc2ccc(Cl)cc2C(c2ccccc2)=[N+]([O-])C1 [chlordiazepoxide],Water consumption (ml) in punished situation,Male CFY rats; Table II: chlordiazepoxide 0.1 mg/kg s.c. + RO 15-1788 5 mg/kg i.p.,4.1 ± 0.59 mL
same,Water consumption (ml) in punished situation,Male CFY rats; Table II: chlordiazepoxide 0.1 mg/kg s.c. + RO 15-1788 10 mg/kg i.p.,3.9 ± 0.43 mL
same,Water consumption (ml) in punished situation,Male CFY rats; Table II: chlordiazepoxide 0.1 mg/kg s.c. + RO 15-1788 20 mg/kg i.p.,2.8 ± 0.49 mL
same,Water consumption (ml) in punished situation,"Male CFY rats; Table II: chlordiazepoxide 0.1 mg/kg s.c., RO 15-1788 none",4.1 ± 0.31 mL
same,Sedative dose (numerator of ratio),Male CFY rats,10
same,Water consumption (ml) punished situation,Male CFY rats; [6],3.5 ± 0.47 mL
same,Water consumption (ml) without punishment,Male CFY rats; [6],5.1 ± 0.56 mL
same,Water consumption (ml) punished situation,Male CFY rats; [7],4.1 ± 0.31 mL
same,Water consumption (ml) without punishment,Male CFY rats; [7],5.8 ± 0.42 mL
same,Water consumption (ml) punished situation,Male CFY rats; [8],3.5 ± 0.62 mL
same,Water consumption (ml) without punishment,Male CFY rats; [8],6.2 ± 0.37 mL
same,Water consumption (ml) punished situation,Male CFY rats; [9],3.1 ± 0.54 mL
same,Water consumption (ml) without punishment,Male CFY rats; [9],7.4 ± 0.77 mL
same,Water consumption (ml) punished situation,Male CFY rats; chlordiazepoxide 1 mg/kg s.c.,2.7 ± 0.58 mL
same,Water consumption (ml) without punishment,Male CFY rats; chlordiazepoxide 1 mg/kg s.c.,5.4 ± 0.68 mL
same,Water consumption (ml) punished situation,Male CFY rats; [10],4.1 ± 0.39 mL
same,Water consumption (ml) without punishment,Male CFY rats; [10],5.2 ± 0.72 mL
same,Water consumption (ml) punished situation,Male CFY rats; chlordiazepoxide 5 mg/kg s.c.,2.5 ± 0.31 mL
same,Water consumption (ml) without punishment,Male CFY rats; chlordiazepoxide 5 mg/kg s.c.,5.4 ± 0.62 mL
same,Water consumption (ml) punished situation,Male CFY rats; chlordiazepoxide 10 mg/kg s.c.,1.6 ± 0.26 mL
same,Water consumption (ml) without punishment,Male CFY rats; chlordiazepoxide 10 mg/kg s.c.,1.8 ± 0.30 mL
same,Ratio between the sedative and anxiolytic dose,Male CFY rats; conflict test,100
same,Anxiolytic effect in presence of RO-15-1788 (selective benzodiazepine receptor antagonist),Male CFY rats; conflict test,antagonized
same,Sedative dose range,"Male CFY rats; subcutaneous, conflict test, unpunished rats",10 mg/kg
same,Displacement of 3H-Diazepam from its receptor,benzodiazepine receptors,concentration dependent manner
same,IC50 value,benzodiazepine receptors,in the same range of concentration
"CCSc1c(N)cnc2cc(Cl)ccc12.Cl [compound A, 3-amino-4-ethylthio-7-chloro-quinoline-hydrochloride]",Influence on picrotoxin induced lethal convulsions,"[1]; pretreated rats, picrotoxin 10 mg/kg s.c.",remained unchanged
same,Protection against picrotoxin induced convulsions,[1]; [11],ineffective
same,Water consumption (ml) in punished situation,Male CFY rats; Table IV: compound A 5 μg/kg s.c. + RO 15-1788 10 mg/kg i.p.,3.1 ± 0.69 mL
same,Water consumption (ml) in punished situation,Male CFY rats; Table IV: compound A 5 μg/kg s.c. + RO 15-1788 20 mg/kg i.p.,2.4 ± 0.39 mL
same,Water consumption (ml) in punished situation,"Male CFY rats; Table IV: compound A 5 μg/kg s.c., RO 15-1788 none",4.2 ± 0.37 mL
same,Sedative dose (numerator of ratio),Male CFY rats,2.5
same,Water consumption (ml) punished situation,Male CFY rats; compound A 0.25 mg/kg s.c.,3.0 ± 0.27 mL
same,Water consumption (ml) without punishment,Male CFY rats; compound A 0.25 mg/kg s.c.,7.7 ± 0.45 mL
same,Water consumption (ml) punished situation,Male CFY rats; compound A 2.5 mg/kg s.c.,1.9 ± 0.35 mL
same,Water consumption (ml) without punishment,Male CFY rats; compound A 2.5 mg/kg s.c.,4.9 ± 0.91 mL
same,Water consumption (ml) punished situation,Male CFY rats; compound A 2.5 γ/kg s.c.,2.2 ± 0.32 mL
same,Water consumption (ml) without punishment,Male CFY rats; compound A 2.5 γ/kg s.c.,6.3 ± 0.46 mL
same,Water consumption (ml) punished situation,Male CFY rats; compound A 5 γ/kg s.c.,3.8 ± 0.19 mL
same,Water consumption (ml) without punishment,Male CFY rats; compound A 5 γ/kg s.c.,6.4 ± 0.33 mL
same,Water consumption (ml) punished situation,Male CFY rats; compound A 25 γ/kg s.c.,3.7 ± 0.44 mL
same,Water consumption (ml) without punishment,Male CFY rats; compound A 25 γ/kg s.c.,7.9 ± 0.58 mL
same,Anti-anxiety potency relative to chlordiazepoxide,Male CFY rats; conflict test,about 20 times
same,Ratio between the sedative and anxiolytic dose,Male CFY rats; conflict test,500
same,Anxiolytic effect in presence of RO-15-1788 (selective benzodiazepine receptor antagonist),Male CFY rats; conflict test,antagonized
same,Influence on the anticonvulsant effect of diazepam (10 mg/kg),[2]; compound A 200 mg/kg,no influence
same,Severity of the pentametazol convulsions,[2]; [12],did not change
same,Survival of pretreated animals,[2]; [12],none of the pretreated animals survived
same,Protection against pentametazol induced convulsions,[2]; [11],ineffective
same,Displacement of 3H-Diazepam from its receptor,benzodiazepine receptors,concentration dependent manner
same,IC50 value,benzodiazepine receptors,in the same range of concentration
same,Animals died,"[3]; 200 mg/kg, electroshock-induced lethal convulsions",70%
same,Protection against electroshock-induced convulsions,[3]; [11],only slightly effective
same,LD50 at 48 h,[4],465 mg/kg
same,Influence on strychnine induced lethal convulsions,"[5]; up to the 200 mg/kg dose level, strychnine 2.5 mg/kg s.c.",not influenced at all
same,Protection against strychnine induced convulsions,[5]; [11],ineffective
CN1C(=O)CN=C(c2ccccc2)c2cc(Cl)ccc21 [diazepam],Deaths of pretreated animals,[2],none of the pretreated animals died
same,Effect on pentametazol convulsions,[2],mitigated the convulsions
same,Rats whose life was saved,"[3]; electroshock-induced lethal convulsions, dose not given",80%
same,Animals died,"[5]; 10 mg/kg, strychnine 2.5 mg/kg s.c.",80%
CCC1(c2ccccc2)C(=O)NC(=O)NC1=O [phenobarbital Na],Animals died,"[1]; 50 mg/kg, picrotoxin 10 mg/kg s.c.",80%
same,Deaths of pretreated animals,[2],none of the pretreated animals died
same,Effect on pentametazol convulsions,[2],mitigated the convulsions
same,Protection against electrogenic convulsions,[3]; 30-50 mg/kg,completely protected
same,Animals died,"[5]; 50 mg/kg, strychnine 2.5 mg/kg s.c.",40%
